Source: patent US12091425B2 (AMGEN INC., priority 2016, dated 2024)

What follows are molecules tested against T1, Mcl-1/Bim interaction, recombinant human Mcl-1 (171-327) (Homo sapiens, UniProt Q07820) (assay: Cell free Mcl-1: Bim Affinity Assay (Mcl-1 HTRF)). Conditions: TR-FRET, 0.1 nM Mcl-1 (171-327), 0.05 nM biotin-Bim (51-76).
T1 construct: made in house
Assay type: binding
How it was run: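 Displacement of biotinylated Bim 51-76 peptide is followed by TR-FRET. Incubation runs overnight. Duplicate points are fitted with a four-parameter sigmoid to yield IC50.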

T1 sequence (Q07820 171-327): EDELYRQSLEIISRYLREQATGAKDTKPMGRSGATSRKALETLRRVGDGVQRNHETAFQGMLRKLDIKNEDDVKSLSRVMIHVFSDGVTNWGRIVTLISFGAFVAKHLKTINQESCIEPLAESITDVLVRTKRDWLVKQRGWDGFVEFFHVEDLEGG

Row | SMILES | IC50 [nM]
1 | C[C@@H]1[C@@H](C)C[C@H](CCN2CCOCC2)/C=C/[C@@H]2CC[C@H]2CN2C[C@@]3(CCCc4cc(Cl)ccc43)COc3ccc(cc32)C(=O)NS1(=O)=O [Example 115, (1S,3′R,6′S,7′E,9′R,11′S,12′R)-6-chloro-11′,12′-dimethyl-9′-(2-(4-morpholinyl)ethyl)-3,4-dihydro-2H,15′H-spiro[naphthalene-1,22′-[20]oxa[13]thia[1,14]diazatetracyclo[14.7.2.0^3,6.0^19,24]pentacosa[7,16,18,24]tetraen]-15′-one 13′,13′-dioxide] | 2.71
2 | C[C@@H]1[C@H](C)/C=C/[C@H](O)[C@@H]2CC[C@H]2CN2C[C@@]3(CCCc4cc(Cl)ccc43)COc3ccc(cc32)C(=O)NS(=O)(=O)[C@H]1C (single isomer, unassigned) [Example 1044] | 35.8
3 | C[C@]12CC[C@H]1CN1C[C@@]3(CCCc4cc(Cl)ccc43)COc3ccc(cc31)C(=O)NS(=O)(=O)CCCCC[C@@H]2O (single isomer, unassigned) [Example 123] | 4.3
4 | O=C1NS(=O)(=O)[C@H]2COC[C@H]2C/C=C/[C@H](O)[C@@H]2CC[C@H]2CN2C[C@@]3(CCCc4cc(Cl)ccc43)COc3ccc1cc32 (single isomer, unassigned) [Example 1029] | 4.42
5 | CC[C@@H]1CC/C=C/[C@H](OCC(=O)N2CCS(=O)(=O)CC2)[C@@H]2CC[C@H]2CN2C[C@@]3(CCCc4cc(Cl)ccc43)COc3ccc(cc32)C(=O)NS1(=O)=O [Example 999, (1S,3′R,6′R,7′S,8′E,12′R)-6-chloro-7′-(2-(1,1-dioxido-4-thiomorpholinyl)-2-oxoethoxy)-12′-ethyl-3,4-dihydro-2H,15′H-spiro[naphthalene-1,22′-[20]oxa[13]thia[1,14]diazatetracyclo[14.7.2.0^3,6.0^19,24]pentacosa [8,16,18,24]tetraen]-15′-one 13′,13′-dioxide] | 0.373

Continued, values first:

Row | IC50 [nM] | SMILES
6 | 18 | CC[C@@H]1CC/C=C\[C@@H](NC(=O)C(C)C)[C@@H]2CC[C@H]2CN2C[C@@]3(CCCc4cc(Cl)ccc43)COc3ccc(cc32)C(=O)NS1(=O)=O [Example 1082]
7 | 1.14 | CC[C@@H]1CCCC[C@@H](NC(C)=O)[C@@H]2CC[C@H]2CN2C[C@@]3(CCCc4cc(Cl)ccc43)COc3ccc(cc32)C(=O)NS1(=O)=O [Example 1080, N-((1S,3′R,6′R,7′R,12′R)-6-chloro-12′-ethyl-13′,13′-dioxido-15′-oxo-3,4-dihydro-2H-spiro[naphthalene-1,22′-[20]oxa[13]thia[1,14]diazatetracyclo[14.7.2.0^3,6.0^19,24]pentacosa [16,18,24]trien]-7′-yl)acetamide]
8 | 2.15 | CCO[C@H]1/C=C/CC[C@@H](CC)S(=O)(=O)NC(=O)c2ccc3c(c2)N(C[C@@H]2CC[C@H]21)C[C@@]1(CCCc2cc(Cl)ccc21)CO3 [Example 975, (1S,3′R,6′R,7′S,8′E,12′R)-6-chloro-7′-ethoxy-12′-ethyl-3,4-dihydro-2H,15′H-spiro[naphthalene-1,22′-[20]oxa[13]thia[1,14]diazatetracyclo[14.7.2.0^3,6.0^19,24]pentacosa [8,16,18,24]tetraen]-15′-one 13′,13′-dioxide]
9 | 0.543 | COCCO[C@H]1/C=C/CC[C@@H](C)S(=O)(=O)NC(=O)c2ccc3c(c2)N(C[C@@H]2CC[C@H]21)C[C@@]1(CCCc2cc(Cl)ccc21)CO3 [Example 405, (1S,3′R,6′R,7′S,8′E,12′R)-6-chloro-7′-(2-methoxyethoxy)-12′-methyl-3,4-dihydro-2H,15′H-spiro[naphthalene-1,22′-[20]oxa[13]thia[1,14]diazatetracyclo[14.7.2.0^3,6.0^19,24]pentacosa [8,16,18,24]tetraen]-15′-one 13′,13′-dioxide]
10 | 0.442 | CNC(=O)CO[C@H]1/C=C/CC[C@@H](C)S(=O)(=O)NC(=O)c2ccc3c(c2)N(C[C@@H]2CC[C@H]21)C[C@@]1(CCCc2cc(Cl)ccc21)CO3 [Example 404, 2-(((1S,3′R,6′R,7′S,8′E,12′R)-6-chloro-12′-methyl-13′,13′-dioxido-15′-oxo-3,4-dihydro-2H-spiro[naphthalene-1,22′-[20]oxa[13]thia[1,14]diazatetracyclo[14.7.2.0^3,6.0^19,24]pentacosa [8,16,18,24]tetraen]-7′-yl)oxy)-N-methylacetamide]

Same assay, conditions: cell free Mcl-1:Bim TR-FRET, recombinant human Mcl-1 (171-327)

Row | SMILES | IC50 [nM]
11 | O=C1NS(=O)(=O)CCOC/C=C/[C@@H]2CC[C@H]2CN2C[C@@]3(CCc4cc(Cl)ccc43)COc3ccc1cc32 [Example 817, (3R,6S,7E,22S)-5′-chloro-2′,3′-dihydro-15H-spiro[10,20-dioxa-13-thia-1,14-diazatetracyclo[14.7.2.0^3,6.0^19,24]pentacosa-7,16,18,24-tetraene-22,1′-inden]-15-one 13,13-dioxide] | 29.3
12 | COc1ccc(C)c(NC(=O)C[C@@H]2CC/C=C/[C@H](O)[C@@H]3CC[C@H]3CN3C[C@@]4(CCCc5cc(Cl)ccc54)COc4ccc(cc43)C(=O)NS2(=O)=O)c1 (single isomer, unassigned) [Example 629] | 2.3
13 | O=C1NS(=O)(=O)CC=CCC(O)CC2CCC2CN2CC3(CCCc4cc(Cl)ccc43)COc3ccc1cc32 (single isomer, unassigned) [Example 913] | 6.1
14 | CC[C@@H]1CC/C=C/[C@H](OC2COC2)[C@@H]2CC[C@H]2CN2C[C@@]3(CCCc4cc(Cl)ccc43)COc3ccc(cc32)C(=O)NS1(=O)=O [Example 783, (1S,3′R,6′R,7′S,8′E,12′R)-6-chloro-12′-ethyl-7′-(3-oxetanyloxy)-3,4-dihydro-2H,15′H-spiro[naphthalene-1,22′-[20]oxa[13]thia[1,14]diazatetracyclo [14.7.2.0^3,6.0^19,24]pentacosa[8,16,18,24]tetraen]-15′-one 13′,13′-dioxide] | 1.04
15 | O=C1NS(=O)(=O)CCC=CC(O)C2CCC2CN2CC3(CCCc4cc(Cl)ccc43)COc3ccc1cc32 (mixture of isomers) [Example 776, (1S,3′R,6′R,7′S,8′E)-6-chloro-7′-hydroxy-3,4-dihydro-2H,14′H-spiro[naphthalene-1,21′-[19]oxa[12]thia[1,13]diazatetracyclo [13.7.2.0^3,6.0^18,23]tetracosa[8,15,17,23]tetraen]-14′-one 12′,12′-dioxide and (1S,3′R,6′R,7′S,8′Z)-6-chloro-7′-hydroxy-3,4-dihydro-2H,14′H-spiro[naphthalene-1,21′-[19]oxa[12]thia[1,13]diazatetracyclo[13.7.2.0^3,6.0^18,23]tetracosa[8,15,17,23]tetraen]-14′-one 12′,12′-dioxide] | 2.71
16 | CC(C)[C@@H]1CCCC[C@H](O)[C@@H]2CC[C@H]2CN2C[C@@]3(CCCc4cc(Cl)ccc43)COc3ccc(cc32)C(=O)NS1(=O)=O (single isomer, unassigned) [Example 752] | 4.39
17 | CC[C@@H]1CC/C=C/C(=O)[C@@H]2CC[C@H]2CN2C[C@@]3(CCCc4cc(Cl)ccc43)COc3ccc(cc32)C(=O)NS1(=O)=O [Example 915, (1S,3′R,6′R,8′E,12′R)-6-chloro-12′-ethyl-3,4-dihydro-2H,7′H,15′H-spiro[naphthalene-1,22′-[20]oxa[13]thia[1,14]diazatetracyclo[14.7.2.0^3,6.0^19,24]pentacosa [8,16,18,24]tetraene]-7′,15′-dione 13′,13′-dioxide] | 16.2
18 | O=C1NS(=O)(=O)CCOCC[C@H](O)[C@@H]2CC[C@H]2CN2C[C@@]3(CCCc4cc(Cl)ccc43)COc3ccc1cc32 [Example 779, (3′R,6′R,7S,22S)-6′-chloro-7-hydroxy-3′,4′-dihydro-2′H,15H-spiro[10,20-dioxa-13-thia-1,14-diazatetracyclo[14.7.2.0^3,6.0^19,24]pentacosa-16,18,24-triene-22, 1′-naphthalen]-15-one-13, 13-dioxide or (3′R,6′R,7R,22S)-6′-chloro-7-hydroxy-3′,4′-dihydro-2′H,15H-spiro[10,20-dioxa-13-thia-1,14-diazatetracyclo[14.7.2.0^3,6.0^19,24]pentacosa-16,18,24-triene-22, 1′-naphthalen]-15-one-13, 13-dioxide] | 5.55
19 | O=C1NS(=O)(=O)CCCCC[C@@H]2CC[C@H]2CN2C[C@@]3(CCCc4cc(Cl)ccc43)COc3ccc1cc32 [Example 818, (1S,3′R,6′R)-6-chloro-3,4-dihydro-2H,14′H-spiro[naphthalene-1,21′-[19]oxa[12]thia[1,13]diazatetracyclo[13.7.2.0^3,6.0^18,23]tetracosa[15,17,23]trien]-14′-one 12′,12′-dioxide] | 13.6
20 | C[C@@H]1CCCCCS(=O)(=O)NC(=O)c2ccc3c(c2)N(C[C@@H]2CC[C@H]21)C[C@@]1(CCCc2cc(Cl)ccc21)CO3 (single isomer, unassigned) [Example 907, (1S,3′R,6′S, 7′R)-6-chloro-7′-methyl-3,4-dihydro-2H,15′H-spiro[naphthalene-1,22′-[20]oxa[13]thia[1,14]diazatetracyclo[14.7.2.0^3,6.0^19,24]pentacosa [16,18,24]trien]-15′-one 13′,13′-dioxide or (1S,3′R,6′S, 7′S)-6-chloro-7′-methyl-3,4-dihydro-2H,15′H-spiro[naphthalene-1,22′-[20]oxa[13]thia[1,14]diazatetracyclo[14.7.2.0^3,6.0^19,24]pentacosa [16,18,24]trien]-15′-one 13′,13′-dioxide] | 18.9
21 | CC(=O)N(C)[C@@H]1CCCCCS(=O)(=O)NC(=O)c2ccc3c(c2)N(C[C@@H]2CC[C@H]21)C[C@@]1(CCCc2cc(Cl)ccc21)CO3 (single isomer, unassigned) [Example 941] | 8.33
22 | C[C@@H]1CCC2=NO[C@H](C2)[C@@H]2CC[C@H]2CN2C[C@@]3(CCCc4cc(Cl)ccc43)COc3ccc(cc32)C(=O)NS1(=O)=O (single isomer, unassigned) [Example 609] | 3.84
23 | COC[C@@H]1C/C=C/[C@H](O)[C@@H]2CC[C@H]2CN2C[C@@]3(CCCc4cc(Cl)ccc43)COc3ccc(cc32)C(=O)NS1(=O)=O (single isomer, unassigned) [Example 773] | 2.35
24 | O=C1NS(=O)(=O)C[C@@H](CO)/C=C/C[C@H](O)[C@@H]2CC[C@H]2CN2C[C@@]3(CCCc4cc(Cl)ccc43)COc3ccc1cc32 (single isomer, unassigned) [Example 707] | 2.25
